{"source": "ChEMBL document CHEMBL1144464", "about": "“Mutations in fusA associated with posttherapy fusidic acid resistance in Clostridium difficile” (2007)", "assay_type_in_all_cases": "functional", "key": {"Clostridioides difficile [1]": {"tested_on": "Clostridioides difficile", "assay": "Antibacterial activity against fusidic acid resistant Clostridium difficile 51:1 isolate after 1 day", "conditions": "24 h"}, "Clostridioides difficile [2]": {"tested_on": "Clostridioides difficile", "assay": "Antibacterial activity against fusidic acid resistant Clostridium difficile 73:1 isolate after 1 day", "conditions": "24 h"}, "Clostridioides difficile [3]": {"tested_on": "Clostridioides difficile", "assay": "Antibacterial activity against fusidic acid resistant Clostridium difficile 26:3 isolate with fusA M16I and H455N mutation after 35 to 40 days"}, "Clostridioides difficile [4]": {"tested_on": "Clostridioides difficile", "assay": "Antibacterial activity against fusidic acid resistant Clostridium difficile 58:2 isolate with fusA H455Q mutation after 8 to 13 days"}, "Clostridioides difficile [5]": {"tested_on": "Clostridioides difficile", "assay": "Antibacterial activity against fusidic acid resistant Clostridium difficile 26:2 isolate with fusA D432N mutation after 8 to 13 days"}, "Clostridioides difficile [6]": {"tested_on": "Clostridioides difficile", "assay": "Antibacterial activity against fusidic acid resistant Clostridium difficile 72:1 isolate after 1 day", "conditions": "24 h"}, "Clostridioides difficile [7]": {"tested_on": "Clostridioides difficile", "assay": "Antibacterial activity against fusidic acid resistant Clostridium difficile 62:1 isolate after 1 day", "conditions": "24 h"}, "Clostridioides difficile [8]": {"tested_on": "Clostridioides difficile", "assay": "Antibacterial activity against fusidic acid resistant Clostridium difficile 63:1 isolate after 1 day", "conditions": "24 h"}, "Clostridioides difficile [9]": {"tested_on": "Clostridioides difficile", "assay": "Antibacterial activity against fusidic acid resistant Clostridium difficile 73:2 isolate with fusA I459R mutation after 8 to 13 days"}, "Clostridioides difficile [10]": {"tested_on": "Clostridioides difficile", "assay": "Antibacterial activity against fusidic acid resistant Clostridium difficile 57:1 isolate after 1 day", "conditions": "24 h"}, "Clostridioides difficile [11]": {"tested_on": "Clostridioides difficile", "assay": "Antibacterial activity against fusidic acid resistant Clostridium difficile 63:2 isolate with fusA T434I after 8 to 13 days"}, "Clostridioides difficile [12]": {"tested_on": "Clostridioides difficile", "assay": "Antibacterial activity against fusidic acid resistant Clostridium difficile 26:1 isolate after 1 day", "conditions": "24 h"}, "Clostridioides difficile [13]": {"tested_on": "Clostridioides difficile", "assay": "Antibacterial activity against fusidic acid resistant Clostridium difficile 49:2 isolate after 8 to 13 days"}, "Clostridioides difficile [14]": {"tested_on": "Clostridioides difficile", "assay": "Antibacterial activity against fusidic acid resistant Clostridium difficile 248:3 isolate with fusA H455R mutation after 35 to 40 days"}, "Clostridioides difficile [15]": {"tested_on": "Clostridioides difficile", "assay": "Antibacterial activity against fusidic acid resistant Clostridium difficile 58:1 isolate with fusA H455Q mutation after 1 day", "conditions": "24 h"}, "Clostridioides difficile [16]": {"tested_on": "Clostridioides difficile", "assay": "Antibacterial activity against fusidic acid resistant Clostridium difficile 100:1 isolate after 1 day", "conditions": "24 h"}, "Clostridioides difficile [17]": {"tested_on": "Clostridioides difficile", "assay": "Antibacterial activity against fusidic acid resistant Clostridium difficile 51:2 isolate with fusA S449P mutation after 8 to 13 days"}, "Clostridioides difficile [18]": {"tested_on": "Clostridioides difficile", "assay": "Antibacterial activity against fusidic acid resistant Clostridium difficile 107:3 isolate with fusA A459R mutation after 35 to 40 days"}, "Clostridioides difficile [19]": {"tested_on": "Clostridioides difficile", "assay": "Antibacterial activity against fusidic acid resistant Clostridium difficile 62:3 isolate with fusA A375 deletion after 35 to 40 days"}, "Clostridioides difficile [20]": {"tested_on": "Clostridioides difficile", "assay": "Antibacterial activity against fusidic acid resistant Clostridium difficile 100:2 isolate with fusA V119A mutation after 8 to 13 days"}, "Clostridioides difficile [21]": {"tested_on": "Clostridioides difficile", "assay": "Antibacterial activity against fusidic acid resistant Clostridium difficile 57:3 isolate with fusA S116L and A374V mutation after 35 to 40 days"}, "Clostridioides difficile [22]": {"tested_on": "Clostridioides difficile", "assay": "Antibacterial activity against fusidic acid resistant Clostridium difficile 62:2 isolate after 8 to 13 days"}, "Clostridioides difficile [23]": {"tested_on": "Clostridioides difficile", "assay": "Antibacterial activity against fusidic acid resistant Clostridium difficile 49:1 isolate after 1 day", "conditions": "24 h"}, "Clostridioides difficile [24]": {"tested_on": "Clostridioides difficile", "assay": "Antibacterial activity against fusidic acid resistant Clostridium difficile 248:1 isolate after 1 day", "conditions": "24 h"}, "Clostridioides difficile [25]": {"tested_on": "Clostridioides difficile", "assay": "Antibacterial activity against fusidic acid resistant Clostridium difficile 49:3 isolate with fusA S116L and A374V mutation after 35 to 40 days"}, "Clostridioides difficile [26]": {"tested_on": "Clostridioides difficile", "assay": "Antibacterial activity against fusidic acid resistant Clostridium difficile 72:2 isolate with fusA S116L and A374V mutation after 8 to 13 days"}, "Clostridioides difficile [27]": {"tested_on": "Clostridioides difficile", "assay": "Antibacterial activity against fusidic acid resistant Clostridium difficile 107:1 isolate after 1 day", "conditions": "24 h"}}}
{"smiles": "CC(=O)O[C@H]1C[C@@]2(C)[C@@H](C[C@@H](O)[C@H]3[C@@]4(C)CC[C@@H](O)[C@@H](C)[C@@H]4CC[C@@]32C)/C1=C(\\CCC=C(C)C)C(=O)O", "note": "[FUSIDIC ACID]", "values": [{"measurement": "MIC", "setting": "Clostridioides difficile [1]", "value": 0.25, "unit": "µg/mL"}, {"measurement": "MIC", "setting": "Clostridioides difficile [2]", "value": 0.5, "unit": "µg/mL"}, {"measurement": "MIC", "setting": "Clostridioides difficile [3]", "value": "> 256", "unit": "µg/mL"}, {"measurement": "MIC", "setting": "Clostridioides difficile [4]", "value": "> 256", "unit": "µg/mL"}, {"measurement": "MIC", "setting": "Clostridioides difficile [5]", "value": "> 256", "unit": "µg/mL"}, {"measurement": "MIC", "setting": "Clostridioides difficile [6]", "value": 0.25, "unit": "µg/mL"}, {"measurement": "MIC", "setting": "Clostridioides difficile [7]", "value": 0.25, "unit": "µg/mL"}, {"measurement": "MIC", "setting": "Clostridioides difficile [8]", "value": 0.25, "unit": "µg/mL"}, {"measurement": "MIC", "setting": "Clostridioides difficile [9]", "value": "> 256", "unit": "µg/mL"}, {"measurement": "MIC", "setting": "Clostridioides difficile [10]", "value": 0.38, "unit": "µg/mL"}, {"measurement": "MIC", "setting": "Clostridioides difficile [11]", "value": 64, "unit": "µg/mL"}, {"measurement": "MIC", "setting": "Clostridioides difficile [12]", "value": 0.38, "unit": "µg/mL"}, {"measurement": "MIC", "setting": "Clostridioides difficile [13]", "value": 0.25, "unit": "µg/mL"}, {"measurement": "MIC", "setting": "Clostridioides difficile [14]", "value": "> 256", "unit": "µg/mL"}, {"measurement": "MIC", "setting": "Clostridioides difficile [15]", "value": "> 256", "unit": "µg/mL"}, {"measurement": "MIC", "setting": "Clostridioides difficile [16]", "value": 0.38, "unit": "µg/mL"}, {"measurement": "MIC", "setting": "Clostridioides difficile [17]", "value": "> 256", "unit": "µg/mL"}, {"measurement": "MIC", "setting": "Clostridioides difficile [18]", "value": "> 256", "unit": "µg/mL"}, {"measurement": "MIC", "setting": "Clostridioides difficile [19]", "value": 4, "unit": "µg/mL"}, {"measurement": "MIC", "setting": "Clostridioides difficile [20]", "value": "> 256", "unit": "µg/mL"}, {"measurement": "MIC", "setting": "Clostridioides difficile [21]", "value": "> 256", "unit": "µg/mL"}, {"measurement": "MIC", "setting": "Clostridioides difficile [22]", "value": 0.25, "unit": "µg/mL"}, {"measurement": "MIC", "setting": "Clostridioides difficile [23]", "value": 0.25, "unit": "µg/mL"}, {"measurement": "MIC", "setting": "Clostridioides difficile [24]", "value": 0.125, "unit": "µg/mL"}, {"measurement": "MIC", "setting": "Clostridioides difficile [25]", "value": "> 256", "unit": "µg/mL"}, {"measurement": "MIC", "setting": "Clostridioides difficile [26]", "value": "> 256", "unit": "µg/mL"}, {"measurement": "MIC", "setting": "Clostridioides difficile [27]", "value": 0.19, "unit": "µg/mL"}]}
